Molecular target: T1, Bone morphogenetic protein 1 (Homo sapiens, UniProt P13497)
T1 sequence (P13497 whole entry): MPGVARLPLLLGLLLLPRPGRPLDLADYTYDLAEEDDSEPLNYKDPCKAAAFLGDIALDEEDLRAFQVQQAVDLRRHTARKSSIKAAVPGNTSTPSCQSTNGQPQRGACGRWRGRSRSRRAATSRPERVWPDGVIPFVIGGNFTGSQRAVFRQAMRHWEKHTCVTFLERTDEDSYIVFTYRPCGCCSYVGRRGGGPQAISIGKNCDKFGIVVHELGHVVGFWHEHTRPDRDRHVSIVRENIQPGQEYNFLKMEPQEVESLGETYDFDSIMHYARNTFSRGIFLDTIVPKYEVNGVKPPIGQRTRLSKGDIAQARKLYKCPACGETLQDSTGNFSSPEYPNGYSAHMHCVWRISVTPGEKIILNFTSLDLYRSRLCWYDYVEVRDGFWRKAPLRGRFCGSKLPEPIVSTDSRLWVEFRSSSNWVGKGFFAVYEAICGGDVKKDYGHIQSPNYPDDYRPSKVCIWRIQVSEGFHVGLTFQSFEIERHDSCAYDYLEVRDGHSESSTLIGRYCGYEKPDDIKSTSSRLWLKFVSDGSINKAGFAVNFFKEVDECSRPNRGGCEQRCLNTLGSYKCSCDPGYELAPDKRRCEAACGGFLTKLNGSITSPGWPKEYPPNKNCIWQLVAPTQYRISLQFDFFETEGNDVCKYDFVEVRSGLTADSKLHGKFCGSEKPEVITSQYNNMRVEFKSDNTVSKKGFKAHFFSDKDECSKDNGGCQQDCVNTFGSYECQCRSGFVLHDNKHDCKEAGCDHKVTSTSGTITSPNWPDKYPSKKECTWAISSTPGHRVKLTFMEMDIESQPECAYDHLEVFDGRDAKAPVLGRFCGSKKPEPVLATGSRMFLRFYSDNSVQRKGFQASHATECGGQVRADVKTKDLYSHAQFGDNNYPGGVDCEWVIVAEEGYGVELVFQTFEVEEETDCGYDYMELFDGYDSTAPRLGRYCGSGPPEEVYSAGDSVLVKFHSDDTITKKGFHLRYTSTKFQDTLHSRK
Test: Inhibitory activity against Procollagen C-Proteinase (PCP)

| Structure (SMILES) | IC50 |
| --- | --- |
| COc1ccc(S(=O)(=O)N(Cc2ccc3c(c2)OCO3)[C@H](CCCNC(=O)OC(C)(C)C)C(=O)NO)cc1 | 52 nM |
| COc1ccc(S(=O)(=O)N(Cc2cccc3ccccc23)[C@H](C)C(=O)NO)cc1 | 90 nM |
| COc1ccc(S(=O)(=O)N(Cc2ccc(F)c(F)c2)[C@H](C)C(=O)NO)cc1 | 76 nM |
| COc1ccc(S(=O)(=O)N(Cc2ccc(C)c([N+](=O)[O-])c2)[C@H](Cc2cccs2)C(=O)NO)cc1 | 60 nM |
| COc1ccc(S(=O)(=O)N(Cc2ccccc2C(F)(F)F)[C@H](C)C(=O)NO)cc1 | 6 nM |
| C=CCOC(=O)NCC(N)C(=O)[C@H](C(=O)NO)N(Cc1ccc2c(c1)OCO2)S(=O)(=O)c1ccc(OC)cc1 (stereo partly drawn) | 23 nM |
| COc1ccc(S(=O)(=O)N(Cc2ccc3c(c2)OCO3)[C@H](Cc2ccc([N+](=O)[O-])cc2)C(=O)NO)cc1 | 32 nM |
| COc1ccc(S(=O)(=O)N(Cc2ccc3c(c2)OCO3)[C@H](Cc2cncn2C(c2ccccc2)(c2ccccc2)c2ccccc2)C(=O)NO)cc1 | 36 nM |
| COc1ccc(S(=O)(=O)N(Cc2ccc3c(c2)OCO3)[C@@H](C(=O)NO)C(=O)C(N)CNC(=O)OCc2ccccc2)cc1 (stereo partly drawn) | 14 nM |
| COc1ccc(S(=O)(=O)N(Cc2cnc(Cl)s2)[C@H](C)C(=O)NO)cc1 | 180 nM |
| COc1ccc(S(=O)(=O)N(Cc2ccc(Br)cc2)[C@H](C)C(=O)NO)cc1 | 37 nM |
| COc1ccc(S(=O)(=O)N(Cc2ccc3c(c2)OCO3)[C@H](Cc2cncn2Cc2ccccc2)C(=O)NO)cc1 | 27 nM |
| COc1ccc(S(=O)(=O)N(Cc2sccc2Oc2ccccc2)[C@H](C)C(=O)NO)cc1 | 40 nM |
| COc1ccc(S(=O)(=O)N(Cc2ccc(SC)cc2)[C@H](C)C(=O)NO)cc1 | 80 nM |
| COc1ccc(S(=O)(=O)N(Cc2ccc(Br)cc2)[C@H](Cc2cccs2)C(=O)NO)cc1 | 70 nM |
| COc1ccc(S(=O)(=O)N(Cc2ccc3c(c2)OCO3)[C@H](Cc2cn(C)cn2)C(=O)NO)cc1 | 50 nM |
| COc1ccc(S(=O)(=O)N(Cc2cc(C(F)(F)F)cc(C(F)(F)F)c2)[C@H](C)C(=O)NO)cc1 | 220 nM |
| COc1ccc(S(=O)(=O)N(Cc2ccc3cc(C)ccc3c2)[C@H](C)C(=O)NO)cc1 | 220 nM |
| COc1ccc(S(=O)(=O)N(Cc2ccc3c(c2)OCO3)[C@H](Cc2cccs2)C(=O)NO)cc1 (stereo in doubt; 41) | 0.2 nM |
| COc1ccc(S(=O)(=O)N(Cc2cc(C)on2)[C@H](C)C(=O)NO)cc1 | 230 nM |

| Structure (SMILES) | IC50 |
| --- | --- |
| COc1ccc(S(=O)(=O)N(Cc2cccc(C)c2[N+](=O)[O-])[C@H](C)C(=O)NO)cc1 | 120 nM |
| COc1ccc(S(=O)(=O)N(Cc2ccc3c(c2)OCO3)[C@H](CCCCNC(=O)OCc2ccccc2)C(=O)NO)cc1 | 16 nM |
| COc1ccc(S(=O)(=O)N(Cc2ccc3c(c2)OCO3)[C@H](COC(C)(C)C)C(=O)NO)cc1 | 23 nM |
| COc1ccc(S(=O)(=O)N(Cc2ccc(OC)c(C)c2C)[C@H](C)C(=O)NO)cc1 | 220 nM |
| COc1ccc(S(=O)(=O)N(Cc2ccc3c(c2)OCO3)[C@H](Cc2cccs2)C(=O)NO)cc1 (stereo in doubt; 2) | 0.2 nM |
| COc1ccc(S(=O)(=O)N(Cc2cccc(Br)c2)[C@H](C)C(=O)NO)cc1 | 93 nM |
| COc1ccc(S(=O)(=O)N(Cc2ccc3c(c2)OCO3)[C@@H](C(=O)NO)C(C)C)cc1 | 53 nM |
| COc1ccc(S(=O)(=O)N(Cc2cc(F)cc(F)c2)[C@H](C)C(=O)NO)cc1 | 140 nM |
| COc1ccc(S(=O)(=O)N(CCn2cccc2)[C@H](C)C(=O)NO)cc1 | 170 nM |
| C=CCOc1ccc2ccc(CN([C@H](C)C(=O)NO)S(=O)(=O)c3ccc(OC)cc3)cc2c1 | 130 nM |
| COc1ccc(S(=O)(=O)N(Cc2sc3scc(C)c3c2C)[C@H](C)C(=O)NO)cc1 | 60 nM |
| COc1ccc(S(=O)(=O)N(Cc2ccc3c(c2)OCO3)[C@@H](C(=O)NO)C(=O)C(N)CNC(=O)OCC2c3ccccc3-c3ccccc32)cc1 (stereo partly drawn) | 0.024 nM |
| COc1ccc(S(=O)(=O)N(Cc2ccc3c(c2)OCO3)[C@@H](C(=O)NO)C(=O)C(N)CNC(=O)OCc2ccccc2Br)cc1 (stereo partly drawn) | 18 nM |
| COc1ccc(S(=O)(=O)N(Cc2ccc3c(c2)OCO3)[C@@H](C(=O)NO)C(=O)C(N)CNC(=O)OCc2ccccc2Cl)cc1 (stereo partly drawn) | 4.6 nM |
| COc1ccc(CSC[C@H](C(=O)NO)N(Cc2ccc3c(c2)OCO3)S(=O)(=O)c2ccc(OC)cc2)cc1 | 32 nM |
| COc1ccc(S(=O)(=O)N(Cc2ccc(Cl)c(Cl)c2)[C@H](C)C(=O)NO)cc1 | 120 nM |
| COc1ccc(S(=O)(=O)N(Cc2ccc(Cl)c([N+](=O)[O-])c2)[C@H](C)C(=O)NO)cc1 | 30 nM |
| COc1ccc(S(=O)(=O)N(Cc2ccc(C(C)C)cc2)[C@H](C)C(=O)NO)cc1 | 230 nM |
| COc1ccc(C[C@H](C(=O)NO)N(Cc2ccc3c(c2)OCO3)S(=O)(=O)c2ccc(OC)cc2)cc1 | 40 nM |
| COc1ccc(S(=O)(=O)N(Cc2ccc3c(c2)OCO3)[C@H](CSc2ccc(C)cc2)C(=O)NO)cc1 | 45 nM |

Molecular target: T1, Bone morphogenetic protein 1
Test: Inhibitory activity against procollagen C-proteinase (PCP).

| Structure (SMILES) | IC50 |
| --- | --- |
| COc1ccc(S(=O)(=O)N(Cc2cccc(I)c2)[C@H](C)C(=O)O)cc1 | 280 nM |
| COc1ccc(S(=O)(=O)N(Cc2ccc(C(C)C)cc2)[C@H](C)C(=O)O)cc1 | 350 nM |
| COc1ccc(S(=O)(=O)N(Cc2ccc(OC)c(C)c2)[C@H](Cc2cccs2)C(=O)NO)cc1 | 490 nM |
| COc1ccc(S(=O)(=O)N(Cc2cccc(Br)c2)[C@H](Cc2cccs2)C(=O)O)cc1 | 230 nM |
| COc1ccc(S(=O)(=O)N(Cc2ccc(I)cc2)[C@H](Cc2cccs2)C(=O)NO)cc1 | 360 nM |
| COc1ccc(S(=O)(=O)N(Cc2cccc(C)c2F)[C@H](Cc2cccs2)C(=O)NO)cc1 | 150 nM |
| COc1ccc(S(=O)(=O)N(CCn2cccc2)[C@H](Cc2cccs2)C(=O)NO)cc1 | 610 nM |
| COc1ccc(CSC[C@H](C(=O)O)N(Cc2ccc3c(c2)OCO3)S(=O)(=O)c2ccc(OC)cc2)cc1 | 250 nM |
| COc1ccc(S(=O)(=O)N(Cc2ccc3c(c2)OCO3)[C@@H](C(=O)O)C2CCN(C(=O)OC(C)(C)C)CC2)cc1 | 26 nM |
| COc1ccc(S(=O)(=O)N(Cc2ccc3c(c2)OCO3)[C@H](Cc2cccs2)C(=O)O)cc1 | 24 nM |
| COC(=O)c1ccc(CN([C@H](Cc2cccs2)C(=O)NO)S(=O)(=O)c2ccc(OC)cc2)cc1 | 110 nM |
| COc1ccc(S(=O)(=O)N(Cc2ccc3c(c2)OCO3)[C@H](COCc2ccccc2)C(=O)O)cc1 | 380 nM |
| COc1ccc(S(=O)(=O)N(Cc2ccc3c(c2)OCO3)[C@H](CCC(=O)OC2CCCCC2)C(=O)O)cc1 | 470 nM |
| COc1ccc(S(=O)(=O)N(Cc2cccc(Br)c2)[C@H](Cc2cccs2)C(=O)NO)cc1 | 260 nM |
| CCCCN(C)C(=N)NCCCC[C@H](C(=O)O)N(Cc1ccc2c(c1)OCO2)S(=O)(=O)c1ccc(OC)cc1 | 200 nM |
| C=Cc1ccc(CN([C@H](Cc2cccs2)C(=O)NO)S(=O)(=O)c2ccc(OC)cc2)cc1 | 190 nM |
| COc1ccc(S(=O)(=O)N(Cc2sc3scc(C)c3c2C)[C@H](C)C(=O)O)cc1 | 50 nM |

| Structure (SMILES) | IC50 |
| --- | --- |
| COc1ccc(S(=O)(=O)N(Cc2cccc(C)c2[N+](=O)[O-])[C@H](C)C(=O)O)cc1 | 380 nM |
| C=CCOc1ccc2ccc(CN([C@H](Cc3cccs3)C(=O)NO)S(=O)(=O)c3ccc(OC)cc3)cc2c1 | 290 nM |
| CCN(CC)C(=N)NCCC[C@H](C(=O)O)N(Cc1ccc2c(c1)OCO2)S(=O)(=O)c1ccc(OC)cc1 | 28 nM |
| COc1ccc(S(=O)(=O)N(Cc2ccc3c(c2)OCO3)[C@H](Cc2ccc(Br)s2)C(=O)O)cc1 | 670 nM |
| C#CC[C@H](C(=O)O)N(Cc1ccc2c(c1)OCO2)S(=O)(=O)c1ccc(OC)cc1 | 10 nM |
| COc1ccc(S(=O)(=O)N(Cc2ccc(C)cc2)[C@H](Cc2cccs2)C(=O)NO)cc1 | 110 nM |
| COc1ccc(S(=O)(=O)N(Cc2ccc3c(c2)OCO3)[C@H](Cc2ccncc2)C(=O)O)cc1 | 592 nM |
| COc1ccc(S(=O)(=O)N(Cc2ccc(Br)cc2F)[C@H](C)C(=O)O)cc1 | 490 nM |
| COc1ccc(S(=O)(=O)N(Cc2cc(F)c(F)cc2F)[C@H](Cc2cccs2)C(=O)NO)cc1 | 180 nM |
| COc1ccc(S(=O)(=O)N(Cc2ccc(Cl)cc2Cl)[C@H](Cc2cccs2)C(=O)NO)cc1 | 860 nM |
| COc1ccc(S(=O)(=O)N(Cc2cc(C)on2)[C@H](Cc2cccs2)C(=O)O)cc1 | 120 nM |
| COc1ccc(S(=O)(=O)N(Cc2ccc(OC)c(C)c2C)[C@H](C)C(=O)O)cc1 | 200 nM |
| COc1ccc(S(=O)(=O)N(Cc2cc(C(F)(F)F)cc(C(F)(F)F)c2)[C@H](Cc2cccs2)C(=O)NO)cc1 | 590 nM |
| COc1ccc(S(=O)(=O)N(Cc2ccc(F)c(F)c2)[C@H](Cc2cccs2)C(=O)NO)cc1 | 80 nM |
| COc1ccc(S(=O)(=O)N(Cc2cccc(Cl)c2)[C@H](Cc2cccs2)C(=O)NO)cc1 | 390 nM |
| COc1ccc(S(=O)(=O)N(Cc2ccc(Cl)c(Cl)c2)[C@H](Cc2cccs2)C(=O)NO)cc1 | 440 nM |

— ChEMBL document CHEMBL1135293, “Amino acid derived sulfonamide hydroxamates as inhibitors of procollagen C-proteinase. Part 2: Solid-phase optimization of side chains” (Bioorg Med Chem Lett, 2002)
